Measured values as given in paper PMC6107127, “Characteristics of the mitochondrial and cellular uptake of MPP^+, as probed by the fluorescent mimic, 4'I-MPP^+” (PLoS ONE, 2018).

Key:
HepG2 cells [1] = assay: MTT cell viability assay; format: cell-based, human
Procedure: (§1) Cell viability was determined by the MTT [3-(4,5-dimethylthiazol-2-yl)-2,5-diphenyltetrazolium bromide)] assay. Briefly, cells were seeded on 96-well plates and allowed to grow to about 70–80% confluence. Prior to the experiment, culture media was replaced with KRB-HCO3^- containing desired concentrations of MPP^+ or 4'I-MPP^+ and incubated for 16 h at 37 °C. After the incubation, 10 μL of 5 mg/mL MTT solution was added to each well and incubated for 2 h at 37 °C. The resulting formazan was solubilized by the addition of 210 μL detergent solution [50% DMF/H2O (v/v), 20% SDS (w/v)] followed by incubation at 37 °C for 12 h. The cell viabilities were determined by quantifying solubilized formazan by measuring the difference in the absorbance at 570 nm and 650 nm. Results were expressed as % viability of MPP^+ or 4'I-MPP^+ treated cells with respect to control cells, which were treated under the same conditions except in the absence of the MPP^+ or 4'I-MPP^+.

MN9D cells [2] = assay: MTT cell viability assay; format: cell-based; details: Mus musculus, 16 h incubation
Procedure: as §1

[3] = Solubility in incubation media; format: physicochemical; details: concentrations above 200 μM
MN9D cells [4] = assay: Chromatin condensation test for apoptosis (DAPI); format: cell-based, mouse; details: 250 μM, 12 h
Procedure: MN9D cells grown in glass-bottomed plates were treated with 250 μM MPP^+ or 4'I- MPP^+ for 12 h and then with 300 nM DAPI in KRB-HEPES for 15 min in the dark at 37 °C [24]. Then cells were rinsed and PBS was added to cover the cell layer. Increase in nuclear DAPI fluorescence (Ex/Em at 358/461 nm) due to chromatin condensation was observed using a Nikon ECLIPSE Ti-S inverted fluorescence microscope. The controls were treated similarly except that MPP^+ or 4'I-MPP^+ was omitted from the initial incubation medium.

HepG2 cells [5] = assay: Cellular uptake of MPP+ and 4'I-MPP+ (HPLC-UV / fluorescence); format: cell-based, human; details: 100 μM toxin, 40 min
Procedure: Cells were seeded into 12-well plates at 0.25 x 10^6 cells/well and grown 2–3 days to about 70–80% confluency. The media was removed and a solution containing 100 μM MPP^+ or 4'I-MPP^+ in warm KRB-HEPES (or without Ca^2+ and with 1.4 mM EGTA) was added to each well and incubated at 37 °C for the desired period of time (see Figure legends for further details). After the incubations, the media were removed and cells were washed with ice-cold KRB-HEPES. Washed cells were suspended in 1.0 mL of ice-cold KRB-HEPES and 50 μL aliquots were withdrawn for protein determination. The remaining cell suspensions were centrifuged at 5000 x g at 4 °C for 5 min and the cell pellets were treated with 75 μL of 0.1 M HClO4. The coagulated proteins were pelleted by centrifugation at 13,200 x g at 4 °C for 8 min and the MPP^+ or 4'I-MPP^+ contents of the supernatants were determined by C18-reversed-phase HPLC-UV (HPLC-UV) as previously described using standard curves constructed from authentic standards. The standard curves for HPLC-UV quantifications were constructed using authentic samples of MPP^+ and 4'I-MPP^+ under the same HPLC-UV separation conditions (S1 Fig).
To quantify 4'I-MPP^+ uptake by fluorescence, MN9D or HepG2 cells grown in glass bottomed plates, washed, and reconstituted with KRB-HEPES (1.0 mL), pH 7.4, and mounted on the stage of a Nikon ECLIPSE Ti-S inverted fluorescence microscope. […]

HepG2 cells [6] = assay: Intracellular ATP levels; format: cell-based, human; details: 100 μM, 6 h at 37 °C
Procedure: Cells grown in 12-well plates were treated with 100 μM MPP^+ or 4'I-MPP^+ in KRB-HEPES for 6 h at 37 °C. After the treatments, cells were suspended in 1 mL of ice-cold KRB-HEPES and 50 μL samples were withdrawn for protein quantification. The remaining cell suspensions were centrifuged for 3 min at 3,500 x g at 4 °C and the cell pellets were treated with 1 mL of lysis buffer (0.1 M Tris, 1% Triton X-100, pH 7.5) for 2 min and centrifuged at 3,500 x g for 3 min to remove the cell debris. The ATP contents of the supernatants were measured using a fluorometric ATP assay kit (BioVision, Milpitas CA, USA) following the manufacture’s guidelines. All ATP levels were normalized to the protein content of each sample.

In the case of `C[n+]1ccc(-c2ccc(I)cc2)cc1` [4'I-MPP^+, 1-methyl-4-(4'-iodophenyl)pyridinium], the HepG2 cell toxicity (HepG2 cells [1]; MPP+ at 0–1000 μM, 4'I-MPP+ at 0–200 μM, 16 h) is reported as “resistant”, the “concentration above which toxic to HepG2 cells” value (HepG2 cells [1]; rough estimates, data not shown) is reported as “above 250 μM” and the IC50 (MN9D cells [2]) is reported as about 40 µM. The “solubility in the incubation media” value [3] was “low solubility”, the “apoptotic cell death (chromatin condensation)” value (MN9D cells [4]) was “cause apoptotic MN9D cell death” and the “cellular uptake in 40 min” value (HepG2 cells [5]) was 1.4 nmoles/mg of protein. The “effect on intracellular ATP levels” value (HepG2 cells [6]) was “deplete intracellular ATP levels”.
